Assay results taken from patent publication US9328374B2, “Selective culture medium and method for detecting carbapenem-resistant bacteria in a test sample” (Institut National de la Sante et de la Recherche Medicale …, priority 2011, dated 2016).

What was measured:
E. cloacae = assay: MIC of imipenem, ertapenem and meropenem; assay type: cell-based, Enterobacter cloacae
P. rettgeri = assay: MIC of imipenem, ertapenem and meropenem; assay type: cell-based, Providencia rettgeri
C. freundii = assay: MIC of imipenem, ertapenem and meropenem; assay type: cell-based, Citrobacter freundii
C. koseri = assay: MIC of imipenem, ertapenem and meropenem; assay type: cell-based
E. aerogenes = assay: MIC of imipenem, ertapenem and meropenem; assay type: cell-based, Enterobacter aerogenes
S. typhimurium = assay: MIC of imipenem, ertapenem and meropenem; assay type: cell-based
enterobacterial isolates = assay: MIC of imipenem, ertapenem and meropenem (groups of isolates, other species); assay type: cell-based, Enterobacteriaceae

C[C@@H](O)[C@H]1C(=O)N2C(C(=O)O)=C(SCCN=CN)C[C@H]12 [IPM, imipenem]
MIC (E. cloacae; E. cloacae 501, OXA-48 + TEM-1 + CTX-M-15): 1 µg/mL | MIC (E. cloacae; E. cloacae 1012, TEM-1 + SHV-12, non-carbapenemase producer): 0.19 µg/mL | MIC (E. cloacae; E. cloacae 1019, TEM-1, non-carbapenemase producer, overexpressed AmpC): 0.25 µg/mL | MIC (E. cloacae; E. cloacae 1027, TEM-1 + CTX-M-15, non-carbapenemase producer): 0.19 µg/mL | MIC (E. cloacae; E. cloacae 1072, TEM-1 + OXA-1, non-carbapenemase producer, overexpressed AmpC): 0.38 µg/mL | MIC (E. cloacae; E. cloacae 5434 (wild type)): 0.38 µg/mL | MIC (E. cloacae; E. cloacae 5434, (wild type), non-carbapenemase producer): 0.38 µg/mL | MIC (E. cloacae; E. cloacae 7725, (wild type), non-carbapenemase producer): 0.19 µg/mL | MIC (E. cloacae; E. cloacae 7746, (wild type), non-carbapenemase producer): 0.38 µg/mL | MIC (E. cloacae; E. cloacae 10111 (TEM-1 + CTX-M-15)): 0.5 µg/mL | MIC (E. cloacae; E. cloacae 10111, TEM-1 + CTX-M-15, non-carbapenemase producer, overexpressed AmpC): 0.5 µg/mL | MIC (E. cloacae; E. cloacae 1008029, VIM-1+ CTX-M-3): >32 µg/mL | MIC (E. cloacae; E. cloacae 1008079, IMP-1): 8 µg/mL | MIC (E. cloacae; E. cloacae 1008187, IMP-1 + CTX-M-15): 8 µg/mL | MIC (E. cloacae; E. cloacae (KPC-2)): 4 µg/mL | MIC (E. cloacae; E. cloacae ARF (overexpressed AmpC)): 0.12 µg/mL | MIC (E. cloacae; E. cloacae ARF, Overexpressed AmpC, non-carbapenemase producer): 0.12 µg/mL | MIC (E. cloacae; E. cloacae AZA (overexpressed AmpC)): 0.12 µg/mL | MIC (E. cloacae; E. cloacae AZA, Overexpressed AmpC, non-carbapenemase producer): 0.12 µg/mL | MIC (E. cloacae; E. cloacae BEU, OXA-48 + TEM-1 + CTX-M-15 + SHV-12): 0.5 µg/mL | MIC (E. cloacae; E. cloacae BLA (overexpressed AmpC)): 0.12 µg/mL | MIC (E. cloacae; E. cloacae BLA, Overexpressed AmpC, non-carbapenemase producer): 0.12 µg/mL | MIC (E. cloacae; E. cloacae CFVL, KPC-2 + TEM-3): 4 µg/mL | MIC (E. cloacae; E. cloacae CLO (CTX-M-15)): 0.12 µg/mL | MIC (E. cloacae; E. cloacae CLO, CTX-M-15, non-carbapenemase producer): 0.12 µg/mL | MIC (E. cloacae; E. cloacae CON (overexpressed AmpC)): 0.12 µg/mL | MIC (E. cloacae; E. cloacae CON, Overexpressed AmpC, non-carbapenemase producer): 0.25 µg/mL | MIC (E. cloacae; E. cloacae CVB (VEB-1)): 0.12 µg/mL | MIC (E. cloacae; E. cloacae CVB, VEB-1, non-carbapenemase producer): 0.12 µg/mL | MIC (E. cloacae; E. cloacae HMG, KPC-2 + TEM-1): 24 µg/mL | MIC (E. cloacae; E. cloacae HPTU (KPC-2 + TEM-1 + SHV-11)): 2 µg/mL | MIC (E. cloacae; E. cloacae HPTU, KPC-2 + TEM-1 + SHV-11): 2 µg/mL | MIC (E. cloacae; E. cloacae IR38 (NDM-1 + CTX-M-15)): 2 µg/mL | MIC (E. cloacae; E. cloacae IR38, NDM-1 + CTX-M-15): 2 µg/mL | MIC (E. cloacae; E. cloacae KAR, VIM-1+ SHV-70): 1 µg/mL | MIC (E. cloacae; E. cloacae TAW (IMP-8 + SHV-12)): 0.75 µg/mL | MIC (E. cloacae; E. cloacae TAW, IMP-8 + SHV-12): 0.75 µg/mL | MIC (E. cloacae; E. cloacae TUR (OXA-48 + SHV-5)): 0.5 µg/mL | MIC (E. cloacae; E. cloacae TUR, OXA-48 + SHV-5): 0.5 µg/mL | MIC (E. cloacae; E. cloacae TWA, IMP-8): 1.5 µg/mL | MIC (E. cloacae; strain E. cloacae 10111, TEM-1 + CTX-M-15, non-carbapenemase producer): 0.5 µg/mL | MIC (E. cloacae; strain E. cloacae BLA, Overexpressed AmpC, non-carbapenemase producer): 0.12 µg/mL | MIC (E. cloacae; strain E. cloacae CLO, CTX-M-15, non-carbapenemase producer): 0.12 µg/mL | MIC (E. cloacae; strain E. cloacae CON, Overexpressed AmpC, non-carbapenemase producer): 0.12 µg/mL | MIC (E. cloacae; strain E. cloacae CVB, VEB-1, non-carbapenemase producer): 0.12 µg/mL | MIC (E. cloacae; strain E. cloacae HPTU, KPC-2 + TEM-1 + SHV-11): 2 µg/mL | MIC (E. cloacae; strain E. cloacae TAW, IMP-8 + SHV-12): 0.75 µg/mL | MIC (E. cloacae; strain E. cloacae TUR, OXA-48 + SHV-5): 0.5 µg/mL | MIC (P. rettgeri; P. rettgeri RAP (OXA-181 + OXA-1)): 8 µg/mL | MIC (P. rettgeri; P. rettgeri RAP, OXA-181 + OXA-1): 8 µg/mL | MIC (P. rettgeri; strain P. rettgeri RAP, OXA-181 + OXA-1): 8 µg/mL | MIC (C. freundii; C. freundii 1003, CTX-M-15 + TEM-1, non-carbapenemase producer): 0.38 µg/mL | MIC (C. freundii; C. freundii 7767 (wild type)): 0.25 µg/mL | MIC (C. freundii; C. freundii 7767, (wild type), non-carbapenemase producer): 0.25 µg/mL | MIC (C. freundii; C. freundii 10107 (TEM-1 + SHV-12)): 0.38 µg/mL | MIC (C. freundii; C. freundii 10107, TEM-1 + SHV-12, non-carbapenemase producer): 0.38 µg/mL | MIC (C. freundii; C. freundii 10135 (CTX-M-15)): 0.38 µg/mL | MIC (C. freundii; C. freundii 10135, CTX-M-15, non-carbapenemase producer): 0.38 µg/mL | MIC (C. freundii; C. freundii MAU (Overexpressed AmpC + TEM-3)): 1 µg/mL | MIC (C. freundii; C. freundii MAU, Overexpressed AmpC + TEM-3, non-carbapenemase producer): 1 µg/mL | MIC (C. freundii; C. freundii STE (NDM-1 + OXA-1 + OXA-9 + OXA-10 + CTX-M-15 + TEM-1)): >32 µg/mL | MIC (C. freundii; C. freundii STE, NDM-1 + TEM-1 + CTX-M-15 + VIM-4 + OXA-1 + OXA-9 + OXA-10 + OXA-181): >32 µg/mL | MIC (C. freundii; strain C. freundii 10107, TEM-1 + SHV-12, non-carbapenemase producer): 0.38 µg/mL | MIC (C. freundii; strain C. freundii 10135, CTX-M-15, non-carbapenemase producer): 0.38 µg/mL | MIC (C. freundii; strain C. freundii MAU, Overexpressed AmpC + TEM-3, non-carbapenemase producer): 1 µg/mL | MIC (C. koseri; C. koseri ROU, OXA-48): 0.38 µg/mL | MIC (C. koseri; C. koseri VER (OXA-48)): 0.75 µg/mL | MIC (C. koseri; C. koseri VER, OXA-48): 0.75 µg/mL | MIC (C. koseri; strain C. koseri VER, OXA-48): 0.75 µg/mL | MIC (E. aerogenes; E. aerogenes 1009, TEM-24, non-carbapenemase producer): 0.19 µg/mL | MIC (E. aerogenes; E. aerogenes 1085 (TEM-24)): 0.12 µg/mL | MIC (E. aerogenes; E. aerogenes 1085, TEM-24, non-carbapenemase producer): 0.12 µg/mL | MIC (E. aerogenes; strain E. aerogenes 1085, TEM-24, non-carbapenemase producer): 0.12 µg/mL | MIC (S. typhimurium; S. typhimurium 1081 (CTX-M-1)): 0.25 µg/mL | MIC (S. typhimurium; S. typhimurium 1081, CTX-M-1, non-carbapenemase producer): 0.25 µg/mL | MIC (S. typhimurium; strain S. typhimurium 1081, CTX-M-1, non-carbapenemase producer): 0.25 µg/mL | MIC (enterobacterial isolates; S. marcescens 0911033, IMP-1): >32 µg/mL | MIC (enterobacterial isolates; S. marcescens 1008091, VIM-1+ CTX-M-15): >32 µg/mL | MIC (enterobacterial isolates; S. marcescens C7052, KPC-2 + TEM-1 + SHV-12): >32 µg/mL | MIC (enterobacterial isolates; S. marcescens D6403, KPC-2 + TEM-1): >32 µg/mL
